Reference: patent publication US10253052B2, “HBED-bisphosphonates, radiometal conjugates and their use as theranostic agents” (Five Eleven Pharma Inc., priority 2015, dated 2019)
Where “and” joins values, the source holds several entries; their conditions need not be identical. Identical values can stand only once. Entries after “also recorded” stand apart in the source; their conditions may differ.

Assays:
[1] = In vivo biodistribution in mice; parameters: species or system normal CD-1 male mice; conditions: for bone to blood ratio / bone to muscle ratio / Biodistribution: Blood / Biodistribution: Bone / Biodistribution: Brain / Biodistribution: Heart / Biodistribution: Kidney / Biodistribution: Liver / Biodistribution: Lung / Biodistribution: Muscle / Biodistribution: Pancreas / Biodistribution: Skin / Biodistribution: Spleen: iv; for Biodistribution result in words (organ uptake, retention, excretion): normal mice after iv injection
Summary of the method: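 Uptake values are % injected dose per gram of wet tissue, from gamma counting of weighed organs with tibia plus femur taken as bone. Tracers (20-30 μCi per animal) were given i.v. to healthy male CD-1 mice (25-30 g), with sacrifice at 2, 30, 60 and 120 min post injection.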

[2] = In vitro binding to hydroxyapatite; conditions: 20 mg hydroxyapatite in saline, 10 min at room temperature
Summary of the method: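 Binding is given as the percentage of ^68Ga activity retained by hydroxyapatite, measured by gamma counting of the solid versus the pooled supernatant and saline washes. The tracer (1 μCi) was exposed for 10 min at room temperature to hydroxyapatite pre-soaked 24 h in isotonic saline.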

O=C([O-])CN(CCN(CC(=O)[O-])Cc1cc(CCC(=O)NC(P(=O)(O)O)P(=O)(O)O)ccc1[O-])Cc1cc(CCC(=O)NCCNC(=O)CN2CCN(CC(=O)O)CCN(CC(=O)O)CCN(CC(=O)O)CC2)ccc1[O-].[68Ga+3] [[^68Ga]1h]
bone to blood ratio ([1]; 2 min): 0.9 | bone to muscle ratio ([1]; 2 min): 4.3 | Biodistribution: Blood ([1]; 2 min post injection): 9.69 ± 1.49 % dose/g | Biodistribution: Bone ([1]; 2 min post injection): 8.31 ± 0.84 % dose/g | Biodistribution: Brain ([1]; 2 min post injection): 0.24 ± 0.03 % dose/g | Biodistribution: Heart ([1]; 2 min post injection): 3.10 ± 0.35 % dose/g | Biodistribution: Kidney ([1]; 2 min post injection): 18.2 ± 1.65 % dose/g | Biodistribution: Liver ([1]; 2 min post injection): 1.99 ± 0.29 % dose/g | Biodistribution: Lung ([1]; 2 min post injection): 4.35 ± 0.52 % dose/g | Biodistribution: Muscle ([1]; 2 min post injection): 1.92 ± 0.14 % dose/g | Biodistribution: Pancreas ([1]; 2 min post injection): 1.48 ± 0.27 % dose/g | Biodistribution: Skin ([1]; 2 min post injection): 2.31 ± 0.25 % dose/g | Biodistribution: Spleen ([1]; 2 min post injection): 1.91 ± 0.48 % dose/g | bone to blood ratio ([1]; 30 min): 27 | bone to muscle ratio ([1]; 30 min): 85 | Biodistribution: Blood ([1]; 30 min (0.5 hr) post injection): 0.45 ± 0.07 % dose/g | Biodistribution: Bone ([1]; 30 min (0.5 hr) post injection): 12.1 ± 0.84 % dose/g | Biodistribution: Brain ([1]; 30 min (0.5 hr) post injection): 0.02 ± 0.01 % dose/g | Biodistribution: Heart ([1]; 30 min (0.5 hr) post injection): 0.24 ± 0.12 % dose/g | Biodistribution: Kidney ([1]; 30 min (0.5 hr) post injection): 2.07 ± 0.62 % dose/g | Biodistribution: Liver ([1]; 30 min (0.5 hr) post injection): 0.15 ± 0.05 % dose/g | Biodistribution: Lung ([1]; 30 min (0.5 hr) post injection): 0.31 ± 0.05 % dose/g | Biodistribution: Muscle ([1]; 30 min (0.5 hr) post injection): 0.14 ± 0.04 % dose/g | Biodistribution: Pancreas ([1]; 30 min (0.5 hr) post injection): 0.09 ± 0.03 % dose/g | Biodistribution: Skin ([1]; 30 min (0.5 hr) post injection): 0.39 ± 0.13 % dose/g | Biodistribution: Spleen ([1]; 30 min (0.5 hr) post injection): 0.13 ± 0.03 % dose/g | bone to blood ratio ([1]; 60 min): 112 | bone to muscle ratio ([1]; 60 min): 233 | Biodistribution: Blood ([1]; 60 min (1 hr) post injection): 0.11 ± 0.05 % dose/g | Biodistribution: Bone ([1]; 60 min (1 hr) post injection): 11.9±1.3 % dose/g and 11.9 ± 1.31 % dose/g | Biodistribution: Brain ([1]; 60 min (1 hr) post injection): 0.01 ± 0.00 % dose/g | Biodistribution: Heart ([1]; 60 min (1 hr) post injection): 0.08 ± 0.01 % dose/g | Biodistribution: Kidney ([1]; 60 min (1 hr) post injection): 1.13 ± 0.08 % dose/g | Biodistribution: Liver ([1]; 60 min (1 hr) post injection): 0.07 ± 0.01 % dose/g | Biodistribution: Lung ([1]; 60 min (1 hr) post injection): 0.14 ± 0.03 % dose/g | Biodistribution: Muscle ([1]; 60 min (1 hr) post injection): 0.05 ± 0.01 % dose/g | Biodistribution: Pancreas ([1]; 60 min (1 hr) post injection): 0.05 ± 0.02 % dose/g | Biodistribution: Skin ([1]; 60 min (1 hr) post injection): 0.11 ± 0.02 % dose/g | Biodistribution: Spleen ([1]; 60 min (1 hr) post injection): 0.07 ± 0.01 % dose/g | bone to blood ratio ([1]; 120 min): 305 | bone to muscle ratio ([1]; 120 min): 383 | Biodistribution: Blood ([1]; 120 min post injection): 0.04 ± 0.01 % dose/g | Biodistribution: Bone ([1]; 120 min post injection): 12.0 ± 0.82 % dose/g | Biodistribution: Brain ([1]; 120 min post injection): 0.01 ± 0.01 % dose/g | Biodistribution: Heart ([1]; 120 min post injection): 0.05 ± 0.01 % dose/g | Biodistribution: Kidney ([1]; 120 min post injection): 1.67 ± 0.54 % dose/g | Biodistribution: Liver ([1]; 120 min post injection): 0.09 ± 0.04 % dose/g | Biodistribution: Lung ([1]; 120 min post injection): 0.10 ± 0.01 % dose/g | Biodistribution: Muscle ([1]; 120 min post injection): 0.03 ± 0.00 % dose/g | Biodistribution: Pancreas ([1]; 120 min post injection): 0.04 ± 0.01 % dose/g | Biodistribution: Skin ([1]; 120 min post injection): 0.07 ± 0.01 % dose/g | Biodistribution: Spleen ([1]; 120 min post injection): 0.07 ± 0.01 % dose/g | Biodistribution result in words (organ uptake, retention, excretion) [1]: excellent bone uptake and fast kidney excretion | Hydroxyapatite Binding (%) [2]: 96.7 ± 0.9%

O=C([O-])CN(CCN(CC(=O)[O-])Cc1cc(CCC(=O)NC(P(=O)(O)O)P(=O)(O)O)ccc1[O-])Cc1cc(CCC(=O)NC(P(=O)(O)O)P(=O)(O)O)ccc1[O-].[68Ga+3] [[^68Ga]2]
bone to blood ratio ([1]; 2 min): 1.1 | bone to muscle ratio ([1]; 2 min): 4.9 | Biodistribution: Blood ([1]; 2 min post injection): 9.97 ± 1.40 % dose/g | Biodistribution: Bone ([1]; 2 min post injection): 11.0 ± 1.95 % dose/g | Biodistribution: Brain ([1]; 2 min post injection): 0.30 ± 0.02 % dose/g | Biodistribution: Heart ([1]; 2 min post injection): 4.13 ± 0.30 % dose/g | Biodistribution: Kidney ([1]; 2 min post injection): 19.4 ± 1.38 % dose/g | Biodistribution: Liver ([1]; 2 min post injection): 2.67 ± 0.12 % dose/g | Biodistribution: Lung ([1]; 2 min post injection): 5.47 ± 0.57 % dose/g | Biodistribution: Muscle ([1]; 2 min post injection): 2.26 ± 0.34 % dose/g | Biodistribution: Pancreas ([1]; 2 min post injection): 2.05 ± 0.23 % dose/g | Biodistribution: Skin ([1]; 2 min post injection): 3.19 ± 0.45 % dose/g | Biodistribution: Spleen ([1]; 2 min post injection): 2.08 ± 0.22 % dose/g | bone to blood ratio ([1]; 30 min): 26 | bone to muscle ratio ([1]; 30 min): 58 | Biodistribution: Blood ([1]; 30 min (0.5 hr) post injection): 0.73 ± 0.28 % dose/g | Biodistribution: Bone ([1]; 30 min (0.5 hr) post injection): 18.8 ± 2.82 % dose/g | Biodistribution: Brain ([1]; 30 min (0.5 hr) post injection): 0.03 ± 0.00 % dose/g | Biodistribution: Heart ([1]; 30 min (0.5 hr) post injection): 0.99 ± 0.13 % dose/g | Biodistribution: Kidney ([1]; 30 min (0.5 hr) post injection): 2.98 ± 1.13 % dose/g | Biodistribution: Liver ([1]; 30 min (0.5 hr) post injection): 0.44 ± 0.09 % dose/g | Biodistribution: Lung ([1]; 30 min (0.5 hr) post injection): 0.96 ± 0.23 % dose/g | Biodistribution: Muscle ([1]; 30 min (0.5 hr) post injection): 0.32 ± 0.05 % dose/g | Biodistribution: Pancreas ([1]; 30 min (0.5 hr) post injection): 0.36 ± 0.17 % dose/g | Biodistribution: Skin ([1]; 30 min (0.5 hr) post injection): 0.71 ± 0.13 % dose/g | Biodistribution: Spleen ([1]; 30 min (0.5 hr) post injection): 0.48 ± 0.09 % dose/g | bone to blood ratio ([1]; 60 min): 42 | bone to muscle ratio ([1]; 60 min): 82.7 and 83 | Biodistribution: Blood ([1]; 60 min (1 hr) post injection): 0.47 ± 0.08 % dose/g | Biodistribution: Bone ([1]; 60 min (1 hr) post injection): 19.7±4.2 % dose/g and 19.7 ± 4.17 % dose/g | Biodistribution: Brain ([1]; 60 min (1 hr) post injection): 0.02 ± 0.00 % dose/g | Biodistribution: Heart ([1]; 60 min (1 hr) post injection): 0.57 ± 0.13 % dose/g | Biodistribution: Kidney ([1]; 60 min (1 hr) post injection): 2.61 ± 0.95 % dose/g | Biodistribution: Liver ([1]; 60 min (1 hr) post injection): 0.43 ± 0.03 % dose/g | Biodistribution: Lung ([1]; 60 min (1 hr) post injection): 0.58 ± 0.09 % dose/g | Biodistribution: Muscle ([1]; 60 min (1 hr) post injection): 0.24 ± 0.04 % dose/g | Biodistribution: Pancreas ([1]; 60 min (1 hr) post injection): 0.27 ± 0.01 % dose/g | Biodistribution: Skin ([1]; 60 min (1 hr) post injection): 0.38 ± 0.05 % dose/g | Biodistribution: Spleen ([1]; 60 min (1 hr) post injection): 0.43 ± 0.05 % dose/g | bone to blood ratio ([1]; 120 min): 77 | bone to muscle ratio ([1]; 120 min): 103 | Biodistribution: Blood ([1]; 120 min post injection): 0.31 ± 0.09 % dose/g | Biodistribution: Bone ([1]; 120 min post injection): 23.9 ± 5.54 % dose/g | Biodistribution: Brain ([1]; 120 min post injection): 0.02 ± 0.00 % dose/g | Biodistribution: Heart ([1]; 120 min post injection): 0.42 ± 0.08 % dose/g | Biodistribution: Kidney ([1]; 120 min post injection): 2.86 ± 1.16 % dose/g | Biodistribution: Liver ([1]; 120 min post injection): 0.40 ± 0.03 % dose/g | Biodistribution: Lung ([1]; 120 min post injection): 0.40 ± 0.05 % dose/g | Biodistribution: Muscle ([1]; 120 min post injection): 0.23 ± 0.05 % dose/g | Biodistribution: Pancreas ([1]; 120 min post injection): 0.31 ± 0.11 % dose/g | Biodistribution: Skin ([1]; 120 min post injection): 0.33 ± 0.06 % dose/g | Biodistribution: Spleen ([1]; 120 min post injection): 0.43 ± 0.24 % dose/g | Biodistribution result in words (organ uptake, retention, excretion) [1]: excellent bone uptake and fast kidney excretion; also recorded: excellent bone uptake and retention | Hydroxyapatite Binding (%) [2]: 90.8 ± 1.5%
